Assay results published in PubChem BioAssay (NCI).
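At the GI50, growth is halved. The concentration for full growth arrest is given as TGI.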

How the values were obtained:
Experiment in all cases: NCI tumour cell line growth inhibition, 384-well format
EKVX NSCLC = test system: EKVX NSCLC
NCI/ADR-RES ovarian = test system: NCI/ADR-RES ovarian
OVCAR-5 ovarian = test system: OVCAR-5 ovarian
SW-620 colon = test system: SW-620 colon
IGROV1 ovarian = test system: IGROV1 ovarian
SNB-19 CNS = test system: SNB-19 CNS
M14 melanoma = test system: M14 melanoma
CCRF-CEM leukemia = test system: CCRF-CEM leukemia
OVCAR-3 ovarian = test system: OVCAR-3 ovarian
HCT-15 colon = test system: HCT-15 colon
SK-MEL-28 melanoma = test system: SK-MEL-28 melanoma
HCC-2998 colon = test system: HCC-2998 colon
HCT-116 colon = test system: HCT-116 colon

Row | Compound | GI50 (EKVX NSCLC) [nM] | TGI (EKVX NSCLC) [nM] | GI50 (NCI/ADR-RES ovarian) [nM] | TGI (NCI/ADR-RES ovarian) [nM] | GI50 (OVCAR-5 ovarian) [nM] | TGI (OVCAR-5 ovarian) [nM] | GI50 (SW-620 colon) [nM] | TGI (SW-620 colon) [nM] | GI50 (IGROV1 ovarian) [nM] | TGI (IGROV1 ovarian) [nM] | GI50 (SNB-19 CNS) [nM] | TGI (SNB-19 CNS) [nM] | GI50 (M14 melanoma) [nM] | TGI (M14 melanoma) [nM] | GI50 (CCRF-CEM leukemia) [nM] | TGI (CCRF-CEM leukemia) [nM] | GI50 (OVCAR-3 ovarian) [nM] | TGI (OVCAR-3 ovarian) [nM] | GI50 (HCT-15 colon) [nM] | TGI (HCT-15 colon) [nM] | other results
1 | CNCc1ccccc1-c1csc([C@@H](C)Nc2nc(C)nc3cc(OC)c(OC)cc23)c1 | 1100 | 2320 | 1620 | 2990 | 1510 | 2860 | 1360 | 2640 | 1310 | 2590 | 1450 | 2770 | 1560 | 2900 | 1070 | 2260 | 1260 | 2520 | 1500 | 2830 | GI50 (SK-MEL-28 melanoma): 1510 nM; TGI (SK-MEL-28 melanoma): 2840 nM; GI50 (HCC-2998 colon): 240 nM; TGI (HCC-2998 colon): 1070 nM; GI50 (HCT-116 colon): 1290 nM; TGI (HCT-116 colon): 2560 nM
2 | Cc1cc(Nc2ccc(NC(=O)c3ccc(Nc4ccnc5ccccc45)cc3)cc2)nc(N)n1 | 1230 | 2670 | > 100000 | > 100000 | 1850 | 3740 | 250 | 580 | 4970 | 9370 | 1240 | 2510 | 1550 | 2920 | 191 | 335 | 189 | 333 | 3870 | 13800 | GI50 (SK-MEL-28 melanoma): 987 nM; TGI (SK-MEL-28 melanoma): 2270 nM; GI50 (HCC-2998 colon): 541 nM; TGI (HCC-2998 colon): 1000 nM; GI50 (HCT-116 colon): 200 nM; TGI (HCT-116 colon): 413 nM
